# In patent US20220033448A1, “METHODS FOR AGGREGATION OF PROTEINS” (priority 2011, published 2022):
# Read-outs that look alike come from different tables or passages of the source. No end group written: not given here.
# Assays:
# S. aureus = type: cell-based, Staphylococcus aureus
# [1] = Preliminary in vivo toxicity in mice; conditions: Swiss mice
# Experimental: Further, three groups of 6-weeks old female Swiss mice were injected with increasing C30 doses over a period of 1 week. C30 was dissolved in physiological water and 1 injection per day was given. In the first 3 days injections in the tail vein were given (150 μl per injection) and during the remaining 2 days IP injections (300 μl per injection). The primary dose started from 3 mg/kg and each day the dose was increased gradually. The control group received the same volume of saline. The highest dose analyzed for IV injections was 50 mg/kg and for the IP injections 100 mg/kg. […] Organs of treated and control mice were subjected to further histological analysis. After all 5 injections were given, blood was taken by retro-orbital puncture and analyzed.
# S. epidermidis = conditions: planktonic, 18 hours
# Experimental: (§1) Bacteria were grown in a shaking incubator at 37° C. and 160rpm in 50 ml BHI , using individual colonies retrieved from a fresh overnight TSA-sheep blood plate. The cultures were grown to a density of approximately 1×10^8cells/ml and then diluted to 5×10^5 cells/ml in CAMHB (Mc Farland 0.5). Each well contained 100p.I (50p.I of peptide containing MHB plus 50 μl inoculum). The final cell density was 1×10^5 to 5×10^5/ml. After addition of the cell suspension, plates were incubated at 37° C. for 18 to 24 hours. The optical density at 590 nm (OD590) of each well was measured after 5 seconds of shaking the plate using Perkin Elmer spectrophotometer (1420 Multilabel Counter Vicotr 3). […] Each well, where no growth was observed, was also plated on TSA-sheep blood agar plates, incubated at 37° C. overnight and visually inspected.
# (§2) A microbroth dilution method was used with twofold serial dilutions in CAMHB (according to EMEA guidelines) was used for screening of peptide activity, with concentrations ranging from 0.3 μg/mIto 200 μg/ml.
# B. cereus = conditions: planktonic, 18 hours
# Experimental: as §1, §2
# E. faecalis = E. faecalis ATCC 19433; planktonic; 18 hours
# Experimental: as §1, §2
# [2] = test system: Human embryonic kidney (HEK293T) cells; conditions: 50 μg/ml (C30: 50 μg/ml or beyond)
# VRE strains = test: MIC, microbroth dilution; conditions: planktonic, 18 hours
# Experimental: as §1
# S. haemolyticus = test: MIC, microbroth dilution; conditions: planktonic, 18 hours
# Experimental: as §1
# S. aureus MRSA 326 = test: Neutropenic-mouse thigh model; conditions: neutropenic mice; bolus i.v. dose of 15 mg/kg 2 h after inoculation; sacrificed 4 hours post-infection
# Candida albicans SC5314 [3] = test: In vitro mature C. albicans biofilm formation on polystyrene (XTT reduction assay); type: cell-based; conditions: 250 μM, 50 μM and 10 μM; peptide during adhesion only or during whole biofilm development; p<0.001
# Experimental: The initial screening and search for optimal Als3 candidate interferors was based on the C. albicans SC5314 adhesion assay on 96-well polystyrene plates upon administration of all the peptides at three different concentrations (250 μM, 50 μM and 10 μM). Based on the results obtained with this adhesion assay, we also tested the effect of peptides on mature biofilm development. The final election of the most optimal candidate interferor peptides was based on the results showing reduction in adhesion and mature biofilm formation caused by the lowest concentration of the peptide tested (10 μM or 2.5 μM).
# In a next step, lower concentrations of peptide F9 (50 μM, 10 μM and 2.5 μM) were also tested. […] Both assays were performed in 96-well polystyrene plates and quantified by the XTT reduction assay (see material and methods section).
# In vitro C. albicans biofilm was studied on three different types of biomaterials, namely flat bottom 96-well polystyrene plate (Greiner Bio-One, Germany), silicone (CS Hyde, USA) and polyurethane triple lumen intravenous catheters (2.4mm diameter) (Arrow International Reading, USA). […] After that, the biofilms were washed twice with 1×PBS and quantified.
# The metabolic activity of Candida cells within in vitro biofilms was studied using the XTT reduction assay. […] The intensity of colorimetric change was measured by spectrophotometer (Spectra max Plus 384) at 490 nm. […]
# Candida albicans SC5314 [4] = test: C. albicans adhesion on polyurethane catheters (CFU counting); type: cell-based; conditions: 50 μM; adhesion 90 min at 37° C.; control 3.06 ±0.39
# Experimental: In vitro C. albicans biofilm was studied on three different types of biomaterials, namely flat bottom 96-well polystyrene plate (Greiner Bio-One, Germany), silicone (CS Hyde, USA) and polyurethane triple lumen intravenous catheters (2.4mm diameter) (Arrow International Reading, USA). Prior the biofilm set up, silicone was cut into small square pieces (1 cm×1 cm) and polyurethane into 1 cm pieces. Silicone or polyurethane devices were incubated in 99% FBS (F7524, Sigma) overnight at 37° C. Cells were washed and resuspended in 1 x phosphate buffered saline (PBS), pH 7.4. Candida suspension of 1×10^7 cells/ml or 5.10^4 cells/ml was prepared in RPMI1640-MOPS medium, Ssuccinate, pH 6.5 or in YNB medium, 4% D-glucose. In total, 1 ml of the cell suspension was added to the silicone discs or polyurethane catheters placed in 24 well plate and 100 μl of cell suspension was inoculated into 96-well polystyrene plate. The attachment of the cells to a substrate was achieved by incubation at 37° C., for 90 min under static conditions (period of adhesion). […] After that, the biofilms were washed twice with 1×PBS and quantified.
# The amount of fungal biofilm biomass formed inside the catheter lumen of in vitro and in vivo explanted catheters was determined by colony forming units (CFU). […] CFUs were counted after two days at 37° C.
sequence,measurement,setting,value
RILLGLIRRGSRILLGLIRR [C30],onset of resistance compared with common antibiotics,"S. aureus; S. aureus ATCC, broth microdilution, 4 duplicates",much slower onset of resistance than Ampicillin
same,fold elevation of the MIC,"S. aureus; S. aureus clinical strain MRSA 204, passaged at half the MIC over 15 days",2 fold
same,side effects,"[1]; IP injection, highest dose of 100 mg/kg",developed a subcutaneous lesion bump
same,mortality and side effects,"[1]; IV injections, increasing doses from 3 mg/kg, highest dose 50 mg/kg",no signs of mortality nor any other visible side effects
same,blood analysis,"[1]; after all 5 injections, retro-orbital puncture",No abnormalities were found in the blood
same,MIC,S. epidermidis; S101,S101: 1.5 μg/ml
same,MIC,S. epidermidis; S103,S103: 1.5 μg/ml
same,MIC,S. epidermidis; S104,S104: 1.5 μg/ml
same,MIC,S. epidermidis; S109,S109: 3 μg/ml
same,MIC,S. epidermidis; S. epidermidis ATCC 13228,S. epidermidis ATCC 13228: 1.5 μg/ml
same,MIC,B. cereus; Bacillus cereus 1,Bacillus cereus 1: 6 μg/ml
same,MIC,B. cereus; Bacillus cereus 2,Bacillus cereus 2: 6 μg/ml
same,MIC,E. faecalis,E. faecalis ATCC 19433: 6 μg/ml
same,LDH release,[2],higher than 50%
same,MIC,VRE strains; VRE 8,VRE 8: 3 μg/ml
same,MIC,VRE strains; VRE 11,VRE 11: 1.5 μg/ml
same,MIC,VRE strains; VRE 12,VRE 12: 12.5 μg/ml
same,MIC,VRE strains; VRE 40,VRE 40: 3 μg/ml
same,MIC,VRE strains; VRE 54,VRE 54: 3 μg/ml
same,MIC,VRE strains; VRE 60,VRE 60: 3 μg/ml
same,MIC,VRE strains; VRE 70,VRE 70: 1.5 μg/ml
same,MIC,S. haemolyticus,S. haemolyticus: 1.5 μg/ml
same,reduction of expansion of initial inoculum,S. aureus MRSA 326,6.9 Log10 CFU/ml
RKLLFNLGSRNGIVIVATTR [F9],biofilm formation (metabolic activity compared to control),Candida albicans SC5314 [3],significant reduction in biofilm formation
same,attachment to polyurethane devices,Candida albicans SC5314 [4],2.18 ±0.12 logio CFU/catheter fragment
